From ChEMBL document CHEMBL1201862, “PubChem BioAssay data set” (2004) come the findings set out here.

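Values below derive from 48-hour exposures of cells grown in 96-well plates, with endpoints linearly interpolated between the two concentrations bracketing the appropriate inhibition level. The concentration for 50% growth inhibition is given as GI50.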 The source made the active and inactive calls. Rule as the data show it: active = GI50 up to about 1.1 µM and inactive = higher.

Some test systems named below: OVCAR-4; A549; K562; CAKI-1; DU-145; CCRF-CEM; NCI-H460; EKVX; M14; T47D; NCI-H522; Malme-3M; HOP-62; OVCAR-3; NCI/ADR-RES; UO-31; HCT-15; RPMI-8226; SR; SNB-75.
Holding throughout (test): NCI-60 cell line screen, 48 h

Regarding `C#C[C@]1(O)CC[C@H]2[C@@H]3CCC4=C/C(=N/CCOC(=O)c5cccc6cc7ccccc7nc56)CC[C@@H]4[C@H]3CC[C@@]21C`, the GI50 in the assay with OVCAR-4 is 26 µM (inactive); in the assay with A549, 28.4 µM (inactive); with K562, > 100 µM (inactive); in the assay on CAKI-1 it was 42.4 µM (inactive); with DU-145, 21 µM (inactive); in the assay on CCRF-CEM, > 100 µM (inactive). Moreover, the GI50 in the assay with NCI-H460 was 14.9 µM (inactive); in the assay on EKVX, 34.8 µM (inactive); with M14, 23 µM (inactive); in the assay with T47D it was 16.8 µM (inactive); in the assay on NCI-H522 it was 17.9 µM (inactive); in the assay on Malme-3M, 27.7 µM (inactive). Further, the GI50 was 35.2 µM (inactive) in the assay on HOP-62; 35.5 µM (inactive) in the assay with OVCAR-3; 26 µM (inactive) in the assay with NCI/ADR-RES; 30.5 µM (inactive) in the assay with UO-31; 17.5 µM in the assay on HCT-15.
With `Nc1nc(=O)c(/N=N/c2ccccc2)c(C(=O)O)[nH]1`, the GI50 is > 100 µM (inactive) with OVCAR-4; 84.5 µM (inactive) in the assay on A549; 54.6 µM (inactive) with K562; > 100 µM (inactive) in the assay on CAKI-1; 98.6 µM (inactive) with DU-145; 63.8 µM (inactive) with RPMI-8226. Moreover, the GI50 was 40.1 µM (inactive) in the assay on CCRF-CEM; 45.7 µM (inactive) in the assay with NCI-H460; 23.3 µM (inactive) with EKVX; > 100 µM (inactive) with M14; 35.3 µM (inactive) with SR; 52.7 µM (inactive) in the assay on NCI-H522. Also, the GI50 is 85.3 µM (inactive) in the assay on Malme-3M; 55.3 µM (inactive) with HOP-62; 98.4 µM (inactive) in the assay on OVCAR-3; > 100 µM (inactive) in the assay on NCI/ADR-RES; > 100 µM (inactive) with UO-31; 75.2 µM in the assay on HCT-15. For the same compound, the GI50 with SNB-75 is > 100 µM (inactive).
As for `Cc1ccc(-c2cc(-c3ccc(Cl)cc3)nc(/N=C3\C(=O)N(CN(C)C)c4ccccc43)n2)cc1`, the GI50 with OVCAR-4 was 41.2 µM (inactive); in the assay on A549, 89.1 µM (inactive); in the assay with K562, 27.3 µM (inactive); with CAKI-1 it was 87.9 µM (inactive); in the assay with DU-145 it was 31.7 µM (inactive); with CCRF-CEM, 14.9 µM (inactive). The GI50 in the assay with NCI-H460 is 39.9 µM (inactive); with EKVX, > 100 µM (inactive); in the assay with M14 it was > 100 µM (inactive); in the assay with T47D, 28.8 µM (inactive); in the assay with NCI-H522, 20.8 µM (inactive); with Malme-3M, > 100 µM (inactive). Further, the GI50 in the assay with HOP-62 is 81.5 µM (inactive); with OVCAR-3, > 100 µM (inactive); in the assay on NCI/ADR-RES, 43.5 µM (inactive); in the assay with UO-31, 90.8 µM (inactive); with HCT-15 it was 41.1 µM; with SNB-75 it was 57.8 µM (inactive).
Take `C[C@@H]1C[C@H]2[C@@H]3CCC4=CC(=O)C=C[C@]4(C)[C@@]3(Cl)[C@@H](Cl)C[C@]2(C)[C@@]1(O)C(=O)COP(=O)(O)O`: the GI50 is > 100 µM (inactive) in the assay on OVCAR-4; > 100 µM (inactive) in the assay with A549; 7.41 µM (inactive) in the assay with K562; > 100 µM (inactive) with CAKI-1; > 100 µM (inactive) in the assay with DU-145; 0.0128 µM (active) with RPMI-8226. In addition, the GI50 in the assay with EKVX is > 100 µM (inactive); in the assay on M14, > 100 µM (inactive); in the assay with SR, 11.4 µM (inactive); with T47D it was > 100 µM (inactive); with NCI-H522, > 100 µM (inactive); in the assay with Malme-3M it was > 100 µM (inactive). The GI50 is > 100 µM (inactive) in the assay on HOP-62; > 100 µM (inactive) with OVCAR-3; > 100 µM (inactive) in the assay on UO-31; greater than 100 µM in the assay with HCT-15; > 100 µM (inactive) in the assay with SNB-75.
Consider `COC(=O)[C@@H]1COC(=O)N1`, for which the GI50 in the assay with OVCAR-4, with A549, in the assay with K562, with CAKI-1, in the assay with DU-145 and in the assay on CCRF-CEM was > 100 µM (inactive) throughout. For the same compound, the GI50 in the assay on NCI-H460, with EKVX, with M14, in the assay on T47D, in the assay with NCI-H522 and in the assay on Malme-3M was > 100 µM (inactive) in each case. Further, the GI50 in the assay with HOP-62 was > 100 µM (inactive); in the assay with OVCAR-3, > 100 µM (inactive); in the assay with NCI/ADR-RES, > 100 µM (inactive); in the assay with UO-31 it was > 100 µM (inactive); in the assay with HCT-15 it was greater than 100 µM; in the assay with SNB-75 it was > 100 µM (inactive).
As to `NC(=O)c1ccc(C(=O)Nc2ccc([As](=O)(O)O)cc2)cc1`, the GI50 in the assay with OVCAR-4, with A549, in the assay on K562, in the assay with CAKI-1, in the assay on DU-145 and with RPMI-8226 was > 100 µM (inactive) in each case. Also, the GI50 in the assay with CCRF-CEM, with NCI-H460, in the assay with EKVX, with M14, with T47D and in the assay with NCI-H522 was > 100 µM (inactive) each time. Further, the GI50 in the assay with Malme-3M was > 100 µM (inactive); in the assay with HOP-62 it was > 100 µM (inactive); in the assay with OVCAR-3 it was > 100 µM (inactive); in the assay with NCI/ADR-RES it was > 100 µM (inactive); in the assay with UO-31, > 100 µM (inactive); with HCT-15 it was greater than 100 µM. Besides, in the assay on SNB-75, the GI50 was > 100 µM (inactive).
Regarding `[N-]=[N+]=NC1C(O)C(CO)OC1n1ccc(N)nc1=O` (centres undefined), the GI50 in the assay with OVCAR-4 is > 625 µM (inactive); with A549, 219 µM (inactive); with K562 it was 294 µM (inactive); in the assay on CAKI-1 it was 185 µM (inactive); with DU-145 it was 212 µM (inactive); in the assay on RPMI-8226, 223 µM (inactive). For the same compound, the GI50 was 0.444 µM (active) in the assay with CCRF-CEM; 235 µM (inactive) with NCI-H460; 429 µM (inactive) in the assay with EKVX; 26.1 µM (inactive) in the assay on M14; 28.5 µM (inactive) in the assay on SR; 37.6 µM (inactive) with NCI-H522. The GI50 with Malme-3M was 93.8 µM (inactive); with HOP-62 it was 104 µM (inactive); in the assay on OVCAR-3, 68.2 µM (inactive); in the assay with NCI/ADR-RES it was 200 µM (inactive); with UO-31, 228 µM (inactive); with HCT-15, 56.2 µM. The GI50 with SNB-75 was 430 µM (inactive).
Regarding `O=C(CCc1ccc(O)cc1)c1c(O)cc(O)cc1OC1OC(CO)C(O)C(O)C1O` (centres undefined), the GI50 in the assay on OVCAR-4, in the assay on A549, in the assay with K562, with CAKI-1, with DU-145 and in the assay on EKVX was > 100 µM (inactive) in each case. Besides, the GI50 with M14, in the assay with T47D, with Malme-3M, in the assay with HOP-62, in the assay with OVCAR-3 and with NCI/ADR-RES was > 100 µM (inactive) each time. In addition, the GI50 was > 100 µM (inactive) with UO-31, greater than 100 µM in the assay with HCT-15 and > 100 µM (inactive) in the assay with SNB-75.
For `NC1=CN(Cc2ccccc2)C2=N/C(=C\c3ccco3)C(=O)N12`, the GI50 in the assay on OVCAR-4, with A549, with K562, with CAKI-1, in the assay with DU-145 and in the assay with CCRF-CEM was > 100 µM (inactive) in each case. Moreover, the GI50 in the assay on NCI-H460, in the assay on EKVX, with M14, in the assay on T47D, in the assay on NCI-H522 and with Malme-3M was > 100 µM (inactive) in each case. Further, the GI50 was > 100 µM (inactive) in the assay on HOP-62; > 100 µM (inactive) in the assay with OVCAR-3; > 100 µM (inactive) in the assay on NCI/ADR-RES; > 100 µM (inactive) with UO-31; greater than 100 µM in the assay with HCT-15; > 100 µM (inactive) in the assay with SNB-75.
Regarding `CC1CNC(c2ccc(CN3CCC(CCCC4CCN(Cc5ccc(C6=NC(C)CN6)cc5)CC4)CC3)cc2)=N1` (centres undefined), the GI50 was 19.7 µM (inactive) in the assay with OVCAR-4; 66.1 µM (inactive) in the assay on A549; 35 µM (inactive) in the assay on K562; > 100 µM (inactive) in the assay on CAKI-1; 45.8 µM (inactive) in the assay on DU-145; 19.5 µM (inactive) in the assay on CCRF-CEM. Moreover, the GI50 in the assay on NCI-H460 was 18.5 µM (inactive); with EKVX, 32.2 µM (inactive); in the assay with M14 it was 62.5 µM (inactive); in the assay on T47D, 50 µM (inactive); in the assay on NCI-H522, 23.5 µM (inactive); in the assay on Malme-3M it was > 100 µM (inactive). In addition, the GI50 in the assay with HOP-62 was 32.2 µM (inactive); with OVCAR-3, > 100 µM (inactive); in the assay with NCI/ADR-RES, > 100 µM (inactive); with UO-31, > 100 µM (inactive); with HCT-15, greater than 100 µM; in the assay on SNB-75 it was 23.4 µM (inactive).
Turning to `CC(C)(C)C1=C(Br)C(O)(C(C)(C)C)OP1(=O)c1ccccc1` (centres undefined), the GI50 in the assay with OVCAR-4, with A549, in the assay with K562, in the assay with CAKI-1, with DU-145 and in the assay on CCRF-CEM was > 100 µM (inactive) throughout. For the same compound, the GI50 with NCI-H460, in the assay on EKVX, in the assay with T47D, with NCI-H522, in the assay with Malme-3M and with HOP-62 was > 100 µM (inactive) in each case. Also, the GI50 is > 100 µM (inactive) with OVCAR-3, > 100 µM (inactive) in the assay with NCI/ADR-RES, greater than 100 µM in the assay on HCT-15 and > 100 µM (inactive) in the assay on SNB-75.
